Reference: paper PMC10610289, “Novel Baicalein-Derived Inhibitors of Plasmodium falciparum” (Pathogens, 2023)
Where two headings read alike, the source gives them in different places. Blank lines part the entries; values can stand above or below the molecule they belong to.

Legend:
Dd2 (wt) = assay: Cross-resistance panel, Dd2 wt; type: cell-based, Plasmodium falciparum; conditions: strain Dd2 wt
Procedure: (§1) Parasite lines used in the study were P. falciparum 3D7 (Pf3D7 Chloroquine-sensitive) and Plasmodium falciparum K1 (PfK1 Chloroquine-resistant) sourced from the Malaria Research and Reference Reagent Resource Center (MR4), ATCC, Manassas, VA, USA. FNDR-10132 was tested against a cross-resistance panel at Swiss TPH, Allschwil, Switzerland.

[1] = tested on: Dd2 DDD107498 (PfeEF2 Y186N); assay: Cross-resistance panel, Dd2 DDD107498; type: cell-based, Plasmodium falciparum
Procedure: as §1

Dd2 DSM265 (Pfdhodh) = assay: Cross-resistance panel, Dd2 DSM265; type: cell-based, Plasmodium falciparum
Procedure: as §1

[2] = tested on: Dd2 ELQ300 (PfcytB Ile22Leu); assay: Cross-resistance panel, Dd2 ELQ300; type: cell-based, Plasmodium falciparum
Procedure: as §1

[3] = tested on: Plasmodium falciparum 3D7 (chloroquine-sensitive); assay: Antimalarial assay (IC50 determination), asexual blood stage, SYBR green; type: cell-based; conditions: for antimalarial activity (in words): P. falciparum 3D7, highest tested concentration 25 µM; for IC50: P. falciparum 3D7, 72 h exposure, read-out: IC50
Procedure: as §1
As per the modified protocol stated by Trager and Jensen, 1976, Plasmodium falciparum parasite lines (Pf3D7 and PfK1) were cultured. Plasmodium strains were maintained in RPMI-1640 medium at 3–5% hematocrit supplemented with 0.2% w/v glucose, 0.5% w/v AlbuMaxII, 0.2% w/v NaHCO3, and 30 μg/mL gentamycin, and, additionally, 15 μM hypoxanthine was added and incubated at 37 °C with 5% O2, 5% CO2, and 90% N2. After 24 h, the medium was changed. After attaining high parasitemia (6–8% mature stage parasite), the culture was sub-passaged with fresh human RBCs.
All tested compounds were dissolved in a DMSO solvent and a prepared stock solution of 10 mM. The reference drug, Chloroquine diphosphate, was dissolved in CRPMI. Working solutions were made from stock solution after diluting in a CRPMI medium during the experiment. The maximum concentration of DMSO used in this study was <1%. It had no parasiticidal effect.
The P. falciparum (0.8–1% parasitemia and 1% hematocrit) synchronous culture was exposed for 72 h (at 37 °C, 5% O2, 5% CO2, and 90% N2) to the serially diluted compound in 96-well plates. A total of 100 µL of RBCs lytic buffer (5 mM EDTA, 20 mM Tris pH 7.5, 0.08% Triton X-100, and 0.008% Saponin) containing the SYBR green 1-X final concentration was distributed to each well and incubated for one hour at room temp in the dark. The plates were read under a fluorescence reader at an excitation of 485 ± 20 nm and emission of 535 ± 25 nm. The IC50 values were calculated based on the DNA content of the parasite relative to its control. An inhibitory concentration of 50% (IC50) was determined using the MS-EXEL template.

[4] = Microsomal stability assay; type: in vitro ADME, mouse; conditions: at 60 min, 1 µM, ß-NADPH, 37 °C
Procedure: Dipotassium hydrogen phosphate, Potassium dihydrogen phosphate, and formic acid were obtained from Merck, Rahway, NJ, USA. Methanol–acetonitrile was procured from Biosolve Chimie, Dieuze, France. Mouse liver microsomes, 20 mg/mL, were received from a third-party vendor in India. Imipramine HCl (catalog no. I0971) and Carbamazepine (catalog no. O0363) were procured from TCI, Gurugram, India. ß-NADPH (product code-99197) was procured from Sisco Research Laboratories, Mumbai, India.
The in vitro metabolic stability was determined in mouse liver microsomes. To prepare a mouse liver microsomes (MLM) homogenate, 100 µL of microsomes was resuspended in 100 mM phosphate buffer (0.607 g K2HPO4 and 0.212 g KH2PO4 dissolved in 50 mL of de-ionized water), achieving a working concentration of 0.625 mg/mL. Positive control (Imipramine) and test compounds (FNDR-10132, 10136, 10139, and 10999) were spiked individually into the MLM homogenate at a final concentration of 1 µm. To pre-incubate, they were placed in a water bath at 37 °C for 5 min. At least 30 µL was collected in triplicates (0 min samples), and the reaction was quenched using 90 µL of acetonitrile, which contained 500 ng/mL of Carbamazepine as an internal standard. Nicotinamide Adenine Dinucleotide Phosphate (NADPH) in phosphate buffer was added to the remaining MLM at a 1 mM final concentration and further incubated at 37 °C. At the indicated time intervals, 30 µL aliquots were sampled in triplicates, and the reaction was quenched with acetonitrile containing Carbamazepine as the internal standard. The samples were centrifugated for 10 min at 13,000 rpm, and the supernatant was separated for further analysis.
The analytical method for microsomal stability and protein binding assay is as follows: Chromatographic elution was achieved following isocratic flow on an X-Terra MS C18 50 × 4.6 mm, 2.5 µm, Waters, USA, maintained at 40 °C. The mobile phase contained aqueous 0.1% formic acid in water in solvent A and acetonitrile acidified with 0.1% formic acid in solvent B delivered at 0.300 mL/min. The flow was 15% from solvent A and 85% from solvent B for 4.5 min. A total of 7 μL of the sample was injected for the assay. […] Detection was performed through multiple reaction monitoring (MRM). The ion transitions are as follows: Imipramine, FNDR-10132, FNDR-10136, FNDR-10139, FNDR-10999, and IS at m/z 281.1→86.0, 355.2→115.1, 354.0→298.0, 350.0→186.1, 349→305.2, and m/z 237.0→194.0, respectively. An optimized cone voltage and collision energy were used to ionize the compounds. The MS parameters follow as follows: cone gas flow 50 (L/h); ion source temperature 150 °C; desolvation gas flow 900 (L/h); desolvation temperature 400 °C; and collision gas flow 0.10 (mL/min).

[5] = tested on: Dd2 GNF156 (Pfcarl Ile1139Lys); assay: Cross-resistance panel, Dd2 GNF156; type: cell-based, Plasmodium falciparum
Procedure: as §1

[6] = tested on: Dd2 390048 (Pfpi4k S743T); assay: Cross-resistance panel, Dd2 390048; type: cell-based, Plasmodium falciparum
Procedure: as §1

[7] = Plasmodium falciparum, 3D7, 72 h

Compound: O=C(NCCN1CCCC1)c1cc(-c2ccc(CN3CCOCC3)cc2)nc2ccc(F)cc12 [DDD107498, reference compound]
IC50 (Dd2 (wt); Plasmodium falciparum): 0.257 nM
Fold shift IC50 rel. Dd2 (Dd2 (wt)): 1.0
IC50 ([1]; Plasmodium falciparum, DD2): 1860 nM
Fold shift IC50 rel. Dd2 ([1]; strain Dd2 DDD107498): 7247

Compound: Cc1cc(Nc2ccc(S(F)(F)(F)(F)F)cc2)n2nc(C(C)(F)F)nc2n1 [DSM265, reference compound]
IC50 (Dd2 DSM265 (Pfdhodh); Plasmodium falciparum): 150 nM
Fold shift IC50 rel. Dd2 (Dd2 DSM265 (Pfdhodh); strain Dd2 DSM265): 24
IC50 (Dd2 (wt); Plasmodium falciparum): 6.23 nM
Fold shift IC50 rel. Dd2 (Dd2 (wt)): 1.0

Compound: COc1cc2[nH]c(C)c(-c3ccc(Oc4ccc(OC(F)(F)F)cc4)cc3)c(=O)c2cc1Cl [ELQ300, reference compound]
Fold shift IC50 rel. Dd2 (Dd2 (wt)): 1.0
IC50 (Dd2 (wt)): 6.14 nM
Fold shift IC50 rel. Dd2 ([2]; strain Dd2 ELQ300): 9.7
IC50 ([2]; strain Dd2 ELQ300, PfcytB Ile22Leu, read-out: IC50): 59.7 nM

Compound: O=C(O)c1ccc2oc(-c3ccccc3)cc(=O)c2c1 [FNDR-10130]
antimalarial activity (in words) [3]: no activity
IC50 [3, 7]: > 25000 nM

Compound: CCCCOc1ccc(-c2cc(=O)c3cc(C(=O)O)ccc3o2)cc1 [FNDR-11000]
antimalarial activity (in words) [3]: none of the compounds were active
IC50 [3, 7]: > 25000 nM

Compound: O=C(O)c1ccc2c(=O)cc(-c3ccc(N4CCCCC4)cc3)oc2c1 [FNDR-11003]
antimalarial activity (in words) [3]: inactive
IC50 [3, 7]: > 25000 nM

Compound: O=C(O)c1ccc2c(=O)cc(-c3ccc(C4CCCCC4)cc3)oc2c1 [FNDR-11012]
antimalarial activity (in words) [3]: inactive
IC50 [3, 7]: > 25000 nM

Compound: CCCCOc1ccc(-c2cc(=O)c3ccc(C(=O)O)cc3o2)cc1 [FNDR-11013]
antimalarial activity (in words) [3]: inactive
IC50 [3, 7]: > 25000 nM

Compound: CCN(CC)c1ccc(-c2cc(=O)c3ccc(C(=O)O)cc3o2)cc1 [FNDR-11014]
antimalarial activity (in words) [3]: inactive
IC50 [3, 7]: > 25000 nM

Compound: CS(=O)(=O)CCCOc1ccc(-c2cc(=O)c3cc(C(=O)O)ccc3o2)cc1 [FNDR-11096]
antimalarial activity (in words) [3]: none of the compounds were active
IC50 [3, 7]: > 25000 nM

Compound: CC1(C)c2nc(-c3ccc(F)cc3)c(Nc3ccc(F)cc3)n2CCN1C(=O)CN [GNF156, reference compound]
IC50 (Dd2 (wt); Plasmodium falciparum): 9.12 nM
Fold shift IC50 rel. Dd2 (Dd2 (wt)): 1.0
IC50 ([5]; Plasmodium falciparum, DD2): 2160 nM
Fold shift IC50 rel. Dd2 ([5]; strain Dd2 GNF156): 237

Compound: CS(=O)(=O)c1ccc(-c2cnc(N)c(-c3ccc(C(F)(F)F)nc3)c2)cc1 [MMV390048, reference compound]
IC50 ([6]; Plasmodium falciparum, DD2): 90.8 nM
Fold shift IC50 rel. Dd2 ([6]; strain Dd2 390048): 4.9
IC50 (Dd2 (wt); Plasmodium falciparum): 18.5 nM
Fold shift IC50 rel. Dd2 (Dd2 (wt)): 1.0

Now from value to molecule:

IC50 [3, 7]: 220 nM
Compound: O=c1cc(-c2ccc(-c3ccccc3)cc2)oc2cc(O)c(O)c(O)c12 [FNDR-10131]

IC50 [3, 7]: 1290 nM
Compound: O=c1cc(-c2ccc(N3CCOCC3)cc2)oc2cc(O)c(O)c(O)c12 [FNDR-10133]

Microsomal Stability (Mouse) [4]: ~19.05 ± 1.26%
IC50 [3, 7]: 100 nM
Compound: O=c1cc(-c2ccc(N3CCCCC3)cc2)oc2cc(O)c(O)c(O)c12 [FNDR-10136]

IC50 [3, 7]: 13200 nM
Compound: O=C(O)c1ccc2oc(-c3ccc(-c4ccccc4)cc3)cc(=O)c2c1 [FNDR-10137]

IC50 [3, 7]: 9650 nM
Compound: O=C(O)c1ccc2oc(-c3ccc(N4CCOCC4)cc3)cc(=O)c2c1 [FNDR-10138]

Microsomal Stability (Mouse) [4]: ~29.92 ± 5.46%
IC50 [3, 7]: 4060 nM
Compound: O=C(O)c1ccc2oc(-c3ccc(N4CCCCC4)cc3)cc(=O)c2c1 [FNDR-10139]

IC50 [3, 7]: 400 nM
Compound: CCCCCCCCCCCc1cc(=O)c2c(O)c(O)c(O)cc2o1 [FNDR-10142]

IC50 [3, 7]: 2480 nM
Compound: O=C(CCCc1ccccc1)NCc1cc(=O)c2c(O)c(O)c(O)cc2o1 [FNDR-10143]

IC50 [3, 7]: 2930 nM
Compound: COc1cccc(CCC(=O)NCc2cc(=O)c3c(O)c(O)c(O)cc3o2)c1 [FNDR-10146]

IC50 [3]: 920 nM
IC50 [3, 7]: 900 nM
Compound: CCCCOc1ccc(C(=O)NCc2cc(=O)c3c(O)c(O)c(O)cc3o2)cc1 [FNDR-10148]

IC50 [3, 7]: 2740 nM
Compound: O=C(CCCCCc1ccccc1)NCc1cc(=O)c2c(O)c(O)c(O)cc2o1 [FNDR-10149]

IC50 [3, 7]: 1120 nM
Compound: O=C(NCc1cc(=O)c2c(O)c(O)c(O)cc2o1)c1ccc2ccc(Br)cc2c1 [FNDR-10150]

Microsomal Stability (Mouse) [4]: ~32.19 ± 0.29%
IC50 [3]: 10100 nM
IC50 [3, 7]: ~10000 nM
Compound: O=C(O)c1ccc2oc(-c3ccc(C4CCCCC4)cc3)cc(=O)c2c1 [FNDR-10999]

IC50 [3]: 10200 nM
IC50 [3, 7]: ~10000 nM
Compound: CCN(CC)c1ccc(-c2cc(=O)c3cc(C(=O)O)ccc3o2)cc1 [FNDR-11001]

IC50 [3, 7]: 10400 nM
Compound: CCCCCCc1ccc(-c2cc(=O)c3cc(C(=O)O)ccc3o2)cc1 [FNDR-11009]

IC50 [3, 7]: 32000 nM
Compound: O=c1cc(-c2ccccc2)oc2cc(O)c(O)c(O)c12 [baicalein]
